In ChEMBL document CHEMBL1125233, “2,4-Diamino-5-benzylpyrimidines as antibacterial agents. 14. 2,3-Dihydro-1-(2,4-diamino-5-pyrimidyl)-1H-indenes as conformationally restricted analogues of trimethoprim” (J Med Chem, 1991) one finds IC50 data, which are given here for 2 compounds.

In experiment [1] the target is T1, Dihydrofolate reductase (Rattus norvegicus, UniProt Q920D2).
T1 sequence (Q920D2 whole entry): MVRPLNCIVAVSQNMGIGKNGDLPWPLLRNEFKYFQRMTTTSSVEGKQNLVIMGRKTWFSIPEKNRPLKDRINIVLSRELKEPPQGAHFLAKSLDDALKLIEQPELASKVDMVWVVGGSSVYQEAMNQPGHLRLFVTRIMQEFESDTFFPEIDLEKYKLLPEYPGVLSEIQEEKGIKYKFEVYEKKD
Briefly: Inhibitory activity against rat liver dihydrofolate reductase at 10e8 M. The settings on record: read-out: I50.

For experiment [2], the target named is Dihydrofolate reductase (Neisseria gonorrhoeae, UniProt P04174). The experiment is described as follows: Inhibitory activity against Neisseria gonorrhoeae dihydrofolate reductase at 10e8 M. The note with it: read-out: I50.
Chain of Dihydrofolate reductase (Neisseria gonorrhoeae, UniProt P04174) (P04174 whole entry): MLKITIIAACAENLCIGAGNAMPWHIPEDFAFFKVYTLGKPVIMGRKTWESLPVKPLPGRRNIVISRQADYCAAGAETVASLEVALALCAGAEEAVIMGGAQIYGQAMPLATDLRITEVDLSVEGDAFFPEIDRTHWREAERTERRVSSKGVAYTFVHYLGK

In the case of `COc1cc2c(cc1OC)C(c1cnc(N)nc1N)CC2` (stereo not drawn), the IC50 at Dihydrofolate reductase [1] came out at 410 µM; on Dihydrofolate reductase [2], 9.7 µM.
On to `COc1ccc(Cc2cnc(N)nc2N)cc1OC` [DIAVERIDINE], for which, on Dihydrofolate reductase [1], the IC50 is 70 µM.
